For data set [1], the target named is T1, LINE1 reverse transcriptase (Homo sapiens, UniProt O00370). In words: Stable artificial-intron Cis LINE1 reporter assay in HeLa Tet-On 3G cells. The format is cell-based. Also on record: expressed in transfected cells; host or cells: HeLa Tet-On 3G (Takara, cat no 631183). The source says:
A stable HeLa Tet-On 3G (Takara, cat no 631183) cell line expressing a bi-directional inducible LINE1 construct was generated as described in Xie, Y. et al. “Cell division promotes efficient retrotransposition in a stable L1 reporter cell line,” Mobile DNA (2013) 4:10. Single cell clones were screened for high Luciferase expression and the highest expression Firefly expressing clone was chosen for compound testing.
Test compounds were serially diluted in DMSO and spotted in 96-well plates. Subsequently the HeLa L1 artificial-intron reporter cells were plated into the compound-containing wells (8,000 cells/well), and the cells were induced for reporter expression with doxycycline (Sigma cat no D9891) at a final concentration of 500 ng/mL. Luminescence was measured 72 h after plating using the Dual-Glo Luciferase Assay System (Promega cat no E2940) following the manufacturer's instructions. The Firefly Luciferase activity was used to report LINE1 activity.

The target of data set [2] is T1, LINE1 reverse transcriptase. In words: Transient artificial-intron Cis LINE1 reporter assay (FLuc/RLuc ratio). Particulars: HEK 293 cells. Also on record: expressed in transfected cells. The format is cell-based. On the procedure:
(§1) Intron-disrupted Firefly luciferase (FLuc) expression cassettes were generated as described by Xie, Y. et al. “Characterization of L1 retrotransposition with high-throughput dual-luciferase assays,” Nucleic Acid Res. (2011) Vol. 39, No. 3, e16. In addition, the plasmid contained an intact Renilla luciferase (RLuc) expression cassette on the vector backbone, in order to normalize transfection efficiency and measure potential cell toxicity.
(§2) HEK 293 cells were seeded in 96-well plates at 1,000 cells/well in 55 μL and grown for 24 hours. Cells were transfected with FuGeneHD (Promega) following the manufacturer's protocol. Each well received 0.133 ng plasmid, 0.4 μL FuGeneHD reagent, and 4.5 μL GlutaMAX-I-supplemented Opti-MEM I reduced-serum medium (Invitrogen). Cells were simultaneously treated with test compound serially diluted starting at 100 μM in a 3-fold dilution dose response.
(§3) Luminescence was measured using the Dual-Glo Luciferase Assay System (Promega) following the manufacturer's instructions. The ratio between FLuc and RLuc gene expression was used to report LINE1 activity.

The test system of data set [3] is HEK 293 cells. The data set can be described thus: Transient LINE1 reporter assay, Renilla luciferase (RLuc) control readout for potential cell toxicity. The format is cell-based. The note with it: even at the highest dose tested (100 μM), FIG. 1. The procedure: as §1, §2, §3
For data set [4], the target named is T2, recombinant MBP-tagged LINE1 protein (238-1061) (Homo sapiens, UniProt O00370).
T2 construct: recombinant MBP-tagged LINE1 protein (238-1061); made in house
The data set can be described thus: Homogeneous time-resolved fluorescence (HTRF) LINE1 RT assay. The format is biochemical. Particulars: tested as tri(ammonium) salt, read-out: IC50 for inhibition of LINE1 reverse transcriptase. The procedure: The LINE1 reverse transcriptase homogeneous time-resolved fluorescence (HTRF) assay was performed with recombinant MBP-tagged LINE1 protein (238-1061) (generated and purified according to procedures in Dai L. et al. BMC Biochemistry 2011; 12:18) in a 384-well format. Test compound was serially diluted in DMSO and further diluted in the assay buffer (50 mM Tris-HCl, 50 mM KCl, 10 mM MgCl2, 10 mM DTT, pH 8.1) to achieve a final DMSO concentration of 1%. The serially diluted compound was mixed with 64 ng/well of LINE1 enzyme, 5 nM of pre-annealed template/biotin-primer pair (synthesized at Generay Biotechnology), 10 nM of Fluorescein-12-dATP fluorescent probe (Perkin Elmer), and 1 μM dGTP/dCTP/dTTP (Thermo Fisher Scientific) in the assay buffer. The template/biotin-primer sequences were as follows:
After incubating at 25° C. for 60 minutes, the detection reagent (20 mM EDTA with streptavidin-terbium cryptate, Cisbio Bioassay) in the PPI buffer (Cisbio Bioassay) was added, and the mixture was incubated at 25° C. for 30 minutes. At the end of the incubation, fluorescence was read at ex/em=337/485 nm and ex/em=337/520 nm on an Envision 2104 plate reader (Perkin Elmer). The fluorescence ratio at 520/485 nm was used for the calculation. […] The IC50 was calculated by fitting the compound dose inhibition curve with a 4-parameter non-linear regression equation.

Data set [5] has as its target T3, HERV-K reverse transcriptase (2-596)-8His protein (Homo sapiens, UniProt V9H0F6).
T3 construct: fused on or other part: C-terminal 8His tag
In words: Homogeneous time-resolved fluorescence (HTRF) HERV-K RT assay. The format is biochemical. The note with it: tested as tri(ammonium) salt, read-out: IC50 for inhibition of HERV-K reverse transcriptase. The procedure:
The HERV-K reverse transcriptase homogeneous time-resolved fluorescence (HTRF) assay was performed in a 384-well format with HERV-K reverse transcriptase (2-596)-8His protein. Baculoviruses were created using Bac-to-Bac technology (Invitrogen). pFastBac donor plasmids containing HERV-K reverse transcriptase sequence (NCBI GenBank number AAC63291.1, J. Virology (1999) Vol. 73, No. 3, pp. 2365-2375) were transformed into DH10 Bac cells following the manufacturer's instructions. Recombinant bacmids were then isolated clonally and transfected into SF9 cells with lipofectin. HERV-K reverse transcriptase was expressed in the SF9 insect cells and then purified using immobilized metal affinity chromatography (IMAC) followed by size-exclusion chromatography (SEC). […]
After incubating at 25° C. for 30 minutes, the detection reagent 20 mM EDTA with streptavidin-terbium cryptate (Cisbio Bioassay) in the PPI buffer (Cisbio Bioassay) was added, and the mixture was incubated at 25° C. for 60 minutes. At the end of the incubation, fluorescence was read at ex/em=337/485 nm and ex/em=337/520 nm on an Envision 2104 plate reader (Perkin Elmer). The fluorescence ratio at 520/485 nm was used for the calculation. […] The IC50 was calculated by fitting the compound dose inhibition curve with a 4-parameter non-linear regression equation.

[6] abbreviates: HeLa L1 artificial-intron reporter cells, doxycycline induced, 72 h, Firefly luciferase, read-out: IC50.
The mark [7] stands for this setting: transient LINE1 reporter, Table 5 of Example 1, read-out: IC50.

Structures are written as SMILES.

T3 sequence (V9H0F6 entry or part of it): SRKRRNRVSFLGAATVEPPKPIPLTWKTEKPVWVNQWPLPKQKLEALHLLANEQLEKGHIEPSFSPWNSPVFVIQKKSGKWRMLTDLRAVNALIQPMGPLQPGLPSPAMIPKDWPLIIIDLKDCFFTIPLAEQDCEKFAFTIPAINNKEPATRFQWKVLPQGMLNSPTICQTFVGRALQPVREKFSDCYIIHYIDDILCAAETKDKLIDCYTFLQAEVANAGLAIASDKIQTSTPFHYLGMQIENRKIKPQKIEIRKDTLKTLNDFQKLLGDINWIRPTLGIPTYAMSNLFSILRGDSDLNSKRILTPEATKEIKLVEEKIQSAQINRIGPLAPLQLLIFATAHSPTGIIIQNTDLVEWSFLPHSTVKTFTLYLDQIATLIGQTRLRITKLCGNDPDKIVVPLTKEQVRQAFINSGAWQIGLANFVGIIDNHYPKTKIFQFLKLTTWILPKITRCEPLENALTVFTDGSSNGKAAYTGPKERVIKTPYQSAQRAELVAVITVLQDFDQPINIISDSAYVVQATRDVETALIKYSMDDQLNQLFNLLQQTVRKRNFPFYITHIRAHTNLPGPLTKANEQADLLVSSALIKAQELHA

For `CCOC(=O)[C@H](C)N[P@](=O)(CO[C@@H]1C=C(F)[C@H](n2cnc3c(N)ncnc32)O1)Oc1ccccc1` [II-1, ethyl ((S)-((((2R,5R)-5-(6-amino-9H-purin-9-yl)-4-fluoro-2,5-dihydrofuran-2-yl)oxy)methyl)(phenoxy)phosphoryl)-L-alaninate], the IC50 in data set [1] (setting [6]) and in data set [2] (setting [7]) was less than 50 nM each time.
In the case of `Nc1ncnc2c1ncn2[C@@H]1O[C@H](OCP(=O)(O)O)C=C1F` [Test Compound], the IC50 in data set [2] (transient transfection, FIG. 1, read-out: IC50 for inhibition of FLuc (FF/RR)) stood at 1000 nM. For the same compound, the “impact on RLuc expression (Renilla)” value in data set [3] is on record as “without any material impact”.
In the case of `Nc1ncnc2c1ncn2[C@@H]1O[C@H](OCP(=O)(O)OP(=O)(O)OP(=O)(O)O)C=C1F` [IV-1], the IC50 in data set [4] turned out to be 100 nM; in data set [5], 120 nM.
As for `Nc1nc(F)nc2c1ncn2[C@@H]1O[C@H](OCP(=O)(O)O)C=C1F` [Compound V-1, sodium ((((2R,5R)-5-(6-amino-2-fluoro-9H-purin-9-yl)-4-fluoro-2,5-dihydrofuran-2-yl)oxy)methyl)phosphonate], the IC50 in data set [1] (setting [6]) was greater than 500 nM.
Turning to `CCOC(=O)[C@H](C)NP(=O)(CO[C@@H]1C=C(F)[C@H](n2cnc3c(N)nc(F)nc32)O1)Oc1ccccc1` (stereo partly drawn) [Compound V-2, ethyl (2S)-2-[({[(2R,5R)-5-(6-amino-2-fluoropurin-9-yl)-4-fluoro-2,5-dihydrofuran-2-yl]oxy}methyl(phenoxy)phosphoryl)amino]propanoate], the IC50 in data set [1] is greater than 500 nM.
As for `CCOC(=O)[C@H](C)N[P@@](=O)(CO[C@@H]1C=C(F)[C@H](n2cnc3c(N)ncnc32)O1)Oc1ccccc1` [II-2, ethyl ((R)-((((2R,5R)-5-(6-amino-9H-purin-9-yl)-4-fluoro-2,5-dihydrofuran-2-yl)oxy)methyl)(phenoxy)phosphoryl)-L-alaninate], the IC50 in data set [1] (setting [6]) and in data set [2] (setting [7]) was less than 50 nM throughout.
With `Nc1ncnc2c1ncn2[C@@H]1O[C@H](OCP(=O)(O)O)C=C1F` [III-1, Sodium ((((2R,5R)-5-(6-amino-9H-purin-9-yl)-4-fluoro-2,5-dihydrofuran-2-yl)oxy)methyl)phosphonate], in data set [1] (setting [6]), the IC50 is greater than 500 nM.
